# According to patent publication US20250262201A1, “COMPOUNDS AND METHODS USEFUL FOR STABILIZING PHENYLALANINE HYDROXYLASE MUTATIONS” (Agios Pharmaceuticals, Inc., priority 2022, published 2025):
# Like-named read-outs stand apart in the source and are kept apart here.
# Target: T1, human PAH with the R408W mutation (Homo sapiens, UniProt P00439, R408W)
# T1 construct: expressed in transfected cells
# T1 sequence (P00439 1-452 R408W): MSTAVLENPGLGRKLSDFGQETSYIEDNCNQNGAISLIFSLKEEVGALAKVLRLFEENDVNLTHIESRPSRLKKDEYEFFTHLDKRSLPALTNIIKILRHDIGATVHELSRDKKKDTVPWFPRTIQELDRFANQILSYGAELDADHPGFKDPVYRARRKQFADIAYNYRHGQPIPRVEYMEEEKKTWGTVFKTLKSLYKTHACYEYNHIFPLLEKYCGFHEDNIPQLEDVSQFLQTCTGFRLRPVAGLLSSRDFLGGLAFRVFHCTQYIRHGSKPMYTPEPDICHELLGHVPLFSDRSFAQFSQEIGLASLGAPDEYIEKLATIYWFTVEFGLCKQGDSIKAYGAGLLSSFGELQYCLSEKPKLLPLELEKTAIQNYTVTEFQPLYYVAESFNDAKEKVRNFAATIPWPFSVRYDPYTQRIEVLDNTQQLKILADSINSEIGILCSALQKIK
# Test: Cell Based Phenylalanine Flux Assay
# Design: scale not given here
# Settings: 13C-Tyrosine by LC-MS, average where tested multiple times
# [1] = A375 R408W cells, 24 hrs with compound, then 20 μM sepiapterin and 800 μM 13C9,15N-Phenylalanine for 4 hours, read-out: AC50
# [2] = A375 R408W cells, 24 hrs with compound, then 20 μM sepiapterin and 800 μM 13C9,15N-Phenylalanine for 4 hours
# [3] = A375 cells expressing human R408W PAH, 24 hrs compound incubation, read-out: AC50
AC50 [1] [µM],SMILES,also measured
1 to 5,CC(C)(O)c1cc(C(=O)N2CCc3[nH]cnc3[C@H]2c2cc3ccccc3cn2)no1,–
1 to 5,CC(C)(O)c1cc(C(=O)N2CCc3[nH]cnc3[C@H]2c2cc3ccccc3cn2)on1,–
1 to 5,O=C(c1nnc(CCN2CC(F)C2)o1)N1CCc2[nH]cnc2[C@H]1c1cc2ccccc2cn1,–
1 to 5,CN1CCN(c2nnc(C(=O)N3CCc4[nH]cnc4[C@H]3c3cc4ccccc4cn3)o2)CC1,–
1 to 5,O=C(CCc1cnco1)N1CCc2[nH]cnc2C1c1cn2ccccc2n1 (stereo not drawn),–
1 to 5,CC(C)(F)c1ncc(C(=O)N2CCc3[nH]cnc3C2c2cn3ccccc3n2)o1 (stereo not drawn),–
1 to 5,CC(C)(O)c1nc(C2CC2)c(C(=O)N2CCc3[nH]cnc3C2c2cn3ccccc3n2)o1 (stereo not drawn),–
> 5,O=C(c1oc(-c2ccccn2)nc1C1CC1)N1CCCc2[nH]cnc2C1c1cn2ccccc2n1 (stereo not drawn),–
1 to 5,O=C(c1oc(-c2ccccn2)nc1C1CC1)N1CCc2nc[nH]c2C1c1cn2ccccc2n1 (stereo not drawn),–
1 to 5,O=C(c1ocnc1-c1ccccn1)N1CCc2[nH]cnc2C1c1cn2ccccc2n1 (stereo not drawn),–
> 5,O=C(c1nnc(-c2ccccn2)o1)N1CCCc2[nH]cnc2C1c1cn2ccccc2n1 (stereo not drawn),–
1 to 5,CC(C)(O)c1ncc(C(=O)N2CCc3[nH]cnc3C2c2cn3ccccc3n2)s1 (stereo not drawn),–
1 to 5,O=C(c1cnc(C(F)F)s1)N1CCc2[nH]cnc2C1c1cn2ccccc2n1 (stereo not drawn),–
1 to 5,O=C(c1cnc(C2CC2)o1)N1CCc2[nH]cnc2C1c1cn2ccccc2n1 (stereo not drawn),–
1 to 5,O=C(c1cnc(C2CC2)s1)N1CCc2[nH]cnc2C1c1cn2ccccc2n1 (stereo not drawn) [listing 1 of 2 here],–
> 5,COCc1ncc(C(=O)N2CCc3[nH]cnc3C2c2cn3ccccc3n2)o1 (stereo not drawn),–

AC50 [1] [µM],SMILES,also measured
1 to 5,N#Cc1ncoc1C(=O)N1CCc2[nH]cnc2C1c1cn2ccccc2n1 (stereo not drawn) [listing 1 of 2 here],–
1 to 5,O=C(c1cnc(C(F)(F)F)s1)N1CCc2[nH]cnc2C1c1cn2ccccc2n1 (stereo not drawn) [listing 1 of 2 here],–
> 5,O=C(c1cnc(C2CC2)s1)N1CCc2[nH]cnc2C1c1cn2ccccc2n1 (stereo not drawn) [listing 2 of 2 here],–
> 5,N#Cc1ncoc1C(=O)N1CCc2[nH]cnc2C1c1cn2ccccc2n1 (stereo not drawn) [listing 2 of 2 here],–
> 5,O=C(c1cnc(C(F)(F)F)s1)N1CCc2[nH]cnc2C1c1cn2ccccc2n1 (stereo not drawn) [listing 2 of 2 here],–
1 to 5,Cc1ncoc1C(=O)N1CC2(CC2)c2[nH]cnc2C1c1cn2ccccc2n1 (stereo not drawn),–
1 to 5,CC1CN(C(=O)c2nnc(N3CCN(C)CC3)o2)C(c2cc3ccccc3cn2)c2nc[nH]c21 (stereo not drawn),–
1 to 5,CC1CN(c2nnc(-c3ccccn3)o2)C(c2cc3ccccc3cn2)c2nc[nH]c21 (stereo not drawn),–
0.5 to 1,CC1CN(C(=O)c2oc(-c3ccccn3)nc2C(F)(F)F)C(c2cc3ccccc3cn2)c2nc[nH]c21 (stereo not drawn),–
1 to 5,"O=C(C1CN(c2ccccn2)C1)N1CCc2[nH]cnc2C1c1cc2ccccc2cn1 (single isomer, unassigned)",–
1 to 5,"COCc1ncc(C(=O)N2CCc3[nH]cnc3[C@@H]2c2ccc3ccccc3n2)o1 (single isomer, unassigned)",–
1 to 5,"COCc1ncc(C(=O)N2CCc3[nH]cnc3[C@@H]2c2ccc3ccccc3n2)s1 (single isomer, unassigned)",–
1 to 5,"CC(C)(O)c1ncc(C(=O)N2CCc3[nH]cnc3C2c2cc3ccccc3cn2)o1 (single isomer, unassigned)",–
> 5,"O=C(c1cnc(-c2ccccn2)o1)N1CCc2[nH]cnc2[C@@H]1c1cc2ccccc2nn1 (single isomer, unassigned)",–
> 5,"C[C@H]1CN(c2nnc(-c3ccccn3)o2)[C@@H](c2cc3ccccc3cn2)c2nc[nH]c21 (single isomer, unassigned)",–
> 5,"CC1CN(C(=O)c2nnc(NC3CC3)o2)C(c2cc3ccccc3cn2)c2nc[nH]c21 (single isomer, unassigned)",–

# Further lines, the compound ahead of its results:
SMILES,AC50 [1] [µM],also measured
O=C(Cn1cncn1)N1CCc2[nH]cnc2C1c1cn2ccccc2n1 (stereo not drawn),> 5,–
O=C(CCc1cncs1)N1CCc2[nH]cnc2C1c1cn2ccccc2n1 (stereo not drawn),> 5,–
O=C(c1cnc(C2(O)CCC2)s1)N1CCc2[nH]cnc2C1c1cn2ccccc2n1 (stereo not drawn),1 to 5,–
CN1CCN(c2nnc(C(=O)N3CCc4[nH]cnc4C3c3cn4ccccc4n3)o2)CC1 (stereo not drawn),> 5,–
Cn1cc(-c2nnc(C(=O)N3CCc4[nH]cnc4C3c3cn4ccccc4n3)o2)cn1 (stereo not drawn),1 to 5,–
O=C(c1nnc(C2CC2)o1)N1CCc2[nH]cnc2C1c1cn2ccccc2n1 (stereo not drawn),1 to 5,–
O=C(N1CCc2[nH]cnc2C1c1cn2ccccc2n1)C(F)(F)C1(O)CCC1 (stereo not drawn),1 to 5,–
O=C(CCc1nc2ccccc2o1)N1CCc2[nH]cnc2C1c1cn2ccccc2n1 (stereo not drawn),1 to 5,–
O=C(CCc1nnc(C(F)F)o1)N1CCc2[nH]cnc2C1c1cn2ccccc2n1 (stereo not drawn),> 5,–
O=C(c1nnc(N2CCOCC2)o1)N1CCc2[nH]cnc2C1c1cn2ccccc2n1 (stereo not drawn),> 5,–
O=C(c1cnc(C(F)(F)F)o1)N1CCc2[nH]cnc2C1c1cn2ccccc2n1 (stereo not drawn),1 to 5,–
O=C(C1CC1(F)F)N1CCc2[nH]cnc2C1c1cn2ccccc2n1 (stereo not drawn) [listing 1 of 3 here],1 to 5,–
O=C(C1CC1(F)F)N1CCc2[nH]cnc2C1c1cn2ccccc2n1 (stereo not drawn) [listing 2 of 3 here],1 to 5,–
O=C(C1CC1(F)F)N1CCc2[nH]cnc2C1c1cn2ccccc2n1 (stereo not drawn) [listing 3 of 3 here],> 5,–
"CC(C)(O)c1ccc2c(C(=O)N3CCc4[nH]cnc4[C@H]3c3cc4ccccc4cn3)cnn2c1 (single isomer, unassigned)",1 to 5,–
"CC(C)(O)c1ncc(C(=O)N2CCc3[nH]cnc3[C@H]2c2cn3ccccc3n2)o1 (single isomer, unassigned)",> 5,–
"Cc1nc(C(C)(C)O)oc1C(=O)N1CCc2[nH]cnc2[C@H]1c1cc2ccccc2cn1 (single isomer, unassigned)",1 to 5,–
"Cc1nc(C(F)(F)F)c(C(=O)N2CCc3nc[nH]c3[C@@H]2c2cn3ccccc3n2)o1 (single isomer, unassigned)",–,"AC50 [2]: E, E"
"COCc1ncc(C(=O)N2CCc3[nH]cnc3[C@H]2c2cn3ccccc3n2)s1 (single isomer, unassigned)",> 5,–
"O=C(Cc1coc(C(F)F)n1)N1CCc2nc[nH]c2[C@H]1c1cn2ccccc2n1 (single isomer, unassigned)",> 5,–

SMILES,AC50 [1] [µM],also measured
"O=C(c1oc(-c2ccccn2)nc1C1CC1)N1CCc2nc[nH]c2[C@H]1c1cn2ccccc2n1 (single isomer, unassigned)",> 5,–
"FC(F)c1nnc(N2CCc3[nH]cnc3[C@H]2c2ccc3ccccc3n2)o1 (single isomer, unassigned)",> 5,–
"Cc1nc(C(F)(F)F)c(C(=O)N2CCc3nc[nH]c3[C@H]2c2cn3ccccc3n2)o1 (single isomer, unassigned)",–,"AC50 [2]: E, E"
"Cc1nc(N(C)C)oc1C(=O)N1CCc2[nH]cnc2[C@H]1c1ccc2ccccc2n1 (single isomer, unassigned)",> 5,–
"C[C@@H](O)c1nnc(C(=O)N2CCc3[nH]cnc3[C@H]2c2cc3ccccc3nn2)o1 (single isomer, unassigned)",> 5,–
"C[C@H](O)c1nnc(C(=O)N2CCc3[nH]cnc3[C@H]2c2cc3ccccc3nn2)o1 (single isomer, unassigned)",1 to 5,–
"Cn1ccc(-c2nc(C(F)F)c(C(=O)N3CCc4[nH]cnc4[C@H]3c3ncc4ccccc4n3)o2)n1 (single isomer, unassigned)",–,"AC50 [2]: E, E"
"Cc1ncoc1C(=O)N1CC2(CC2)c2[nH]cnc2[C@H]1c1ccc2ccccc2n1 (single isomer, unassigned)",> 5,–
"COCCNc1nnc(C(=O)N2C[C@@H](C)c3[nH]cnc3[C@H]2c2cc3ccccc3cn2)o1 (single isomer, unassigned)",> 5,–
"C[C@H]1CN(C(=O)c2nnc(N3CC(F)C3)o2)[C@H](c2cc3ccccc3cn2)c2nc[nH]c21 (single isomer, unassigned)",1 to 5,–
"Cc1ncoc1C(=O)N1C[C@@H](C)c2[nH]cnc2[C@@H]1c1cc2ccccc2cn1 (single isomer, unassigned)",–,"AC50 [2]: E, E"
"C[C@H]1CN(C(=O)c2ocnc2C(F)(F)F)[C@@H](c2cc3ccccc3cn2)c2nc[nH]c21 (single isomer, unassigned)",–,"AC50 [2]: E, E"
"Cc1nc(C(C)(C)O)oc1C(=O)N1CCc2[nH]cnc2[C@@H]1c1ccc2ccccc2n1 (single isomer, unassigned) [Example 14]",–,AC50 [3]: > 5 µM
"O=C(c1nnc(-c2cnn(CC(F)(F)F)c2)o1)N1CCc2[nH]cnc2[C@H]1c1ccc2ccccc2n1 (single isomer, unassigned) [Example 67]",–,AC50 [3]: 0.5 to 1 µM
"O=C(c1nnc(-c2cnn(CC(F)(F)F)c2)o1)N1CCc2[nH]cnc2[C@@H]1c1ccc2ccccc2n1 (single isomer, unassigned) [Example 68]",–,AC50 [3]: > 5 µM
"CC(O)c1nc(Br)c(C(=O)N2CCc3[nH]cnc3[C@@H]2c2ccc3ccccc3n2)o1 (single isomer, unassigned) [Example 131]",–,AC50 [3]: 1 to 5 µM
"CC(O)c1nc(Br)c(C(=O)N2CCc3[nH]cnc3[C@@H]2c2ccc3ccccc3n2)o1 (single isomer, unassigned) [Example 132]",–,AC50 [3]: 1 to 5 µM
"CC(O)c1nc(Br)c(C(=O)N2CCc3[nH]cnc3[C@H]2c2ccc3ccccc3n2)o1 (single isomer, unassigned) [Example 133]",–,AC50 [3]: < 0.5 µM
"CC(O)c1nc(Br)c(C(=O)N2CCc3[nH]cnc3[C@H]2c2ccc3ccccc3n2)o1 (single isomer, unassigned) [Example 134]",–,AC50 [3]: < 0.5 µM
"CC(O)c1nc(Cl)c(C(=O)N2CCc3[nH]cnc3[C@@H]2c2ccc3ccccc3n2)o1 (single isomer, unassigned) [Example 135]",–,AC50 [3]: > 5 µM
